Patent US11149024B2, “Synthesis of Mcl-1 inhibitor” (ASTRAZENECA AB, priority 2017, dated 2021)

How the values were obtained:
Assay type in all cases: cell-based
[1] = tested on: KMS-12-BM (multiple myeloma) cells; experiment: Caspase Activity assay (Caspase-Glo 3/7), KMS-12-BM; conditions: Homo sapiens; KMS-12-BM cells, 6 h treatment, induction of apoptosis
Method: (§1) Caspase Activity assay: This is a cell assay to measure the induction of apoptosis in MOLP-8 (multiple myeloma), KMS-12-BM (multiple myeloma), MV4; 11 (acute myeloid leukemia), and NCI-H23 (non-small cell lung cancer) cells after 6 h treatment with Mcl-1 inhibitors. On the first day, 3000 (MOLP-8, KMS-12-BM, MV4; 11) or 1250 (NCI-H23) cells/well were seeded with 50 μL of growth media (IMDM+10% FBS+2 mM L-Glu for MV4; 11 and RPMI-1640+10% FBS+2 mM L-Glu for all others) in 384-well white microplates, and incubated overnight (37° C., 5% C02, 80% RH). On the second day, the cells were treated with Compound I using an ECHO acoustic liquid handler (10 point half-log serial dilution, 31.5 μM top concentration, 0.3% final DMSO concentration). After 6 h incubation (37° C., 5% C02, 80% RH), 25 μL of Caspase-Glo 3/7 reagent (Promega) was added into each well, and plates were incubated at room temperature for 30 min protected from light. Luminescence was recorded using an Infinite M200 microplate reader (Tecan) with a 100 ms integration time.

[2] = tested on: NCI-H23 (non-small cell lung cancer) cells; experiment: Caspase Activity assay (Caspase-Glo 3/7), NCI-H23; conditions: Homo sapiens, 6 h treatment, induction of apoptosis
Method: as §1

[3] = tested on: MOLP-8 (multiple myeloma) cells; experiment: Caspase Activity assay (Caspase-Glo 3/7), MOLP-8; conditions: Homo sapiens; MOLP-8 cells, 6 h treatment, induction of apoptosis
Method: as §1

[4] = tested on: MV4; 11 (acute myeloid leukemia) cells; experiment: Caspase Activity assay (Caspase-Glo 3/7), MV4; 11; conditions: Homo sapiens, 11 cells, 6 h treatment, induction of apoptosis
Method: as §1

EC50 [1]: 43 nM | EC50 [2]: 193 nM | EC50 [3]: 30 nM | EC50 [4]: 20 nM
SMILES: Cc1c2c(nn1C)CSCc1cc(n(C)n1)CSc1cc(c3ccccc3c1)OCCCc1c(C(=O)O)n(C)c3c-2c(Cl)ccc13 (atropisomer, axis not shown; (Ra)) [Compound I, (Ra)-(+)-17-chloro-5,13,14,22-tetramethyl-28-oxa-2,9-dithia-5,6,12,13,22-pentaazaheptacyclo[27.7.1.1^4,7.0^11,15.0^16,21.0^20,24.0^30,35]octatriaconta-1(37),4(38),6,11,14,16,18,20,23,29,31,33,35-tridecaene-23-carboxylic acid]
